The results in this text go back to patent US10420734B2, “Method of treating cancer using selective estrogen receptor modulators” (Duke University, priority 2014, dated 2019).

Structures are written as SMILES. Entries after “also recorded” stand apart in the source; their conditions may differ.

What all share (type): cell-based
Test [1] has as its system ESR1 target gene trefoil factor 1 (TFF1). The test can be described thus: E2-dependent ESR1 target gene (TFF1) mRNA in MCF7 cells, RT qPCR. The settings on record: 10^-9 M E2, ligand 10^-11-10^-6 M, 24 hours. On the procedure: RNA isolation and analysis was performed as described (Wardell et al., (2001) Biochem Pharmacol 82 (2):122-130). mRNA abundance was calculated using the ΔΔCT method (Wardell et al., (2001) Biochem Pharmacol 82 (2):122-130). Primer sequences are available upon request.
(§1) The ability of RAD1901 (FIG. 5A) to modulate the […] estradiol (E2) dependent transcriptional activity of the human estrogen receptor alpha (ESR1) and human estrogen receptor beta (ESR2) was assessed in transiently transfected SKBR3 cells using a synthetic reporter gene. […] For FIG. 5B, SKBR3 cells were plated in phenol red free media supplemented with charcoal stripped FBS (CFS) 24 hours prior to transfection with an ERE-luciferase reporter together with ESR1 or ESR2 expression vectors. 24 hours after transfection, cells were treated with E2 (10 nM) together with RAD1901 (10^−10-10^−6 M) for 24 hours prior to harvest and analysis of luciferase activity normalized to co-transfected β-galactosidase control. […] DNA content as assessed by fluorescence was measured as a surrogate for cell proliferation. The relative increase in DNA fluorescence was calculated by normalizing to baseline values detected in a duplicate plate of cells that was harvested on day 1 prior to the initial treatment. […] For FIG. 5F, expression of ESR1 target genes in tumors was analyzed essentially as in (C).
On the technique in general: Real-time PCR tracks product formation cycle by cycle.

The subject of a further test is MCF7 cells. Kind of test: E2-stimulated MCF7 cell proliferation assay (8 day, DNA fluorescence). The settings on record: 10^-9 M E2, ligand 10^-11-10^-6 M, 8 day assay. Here is the method: Assays evaluating the effects of SERDs and SERMs on cell proliferation were performed as described (Wardell et al., (2013) Clin Cancer Res 19 (9):2420-2431).
as §1

A further test addresses T1, ESR1 (Homo sapiens, UniProt P03372).
T1 sequence (P03372 1-595): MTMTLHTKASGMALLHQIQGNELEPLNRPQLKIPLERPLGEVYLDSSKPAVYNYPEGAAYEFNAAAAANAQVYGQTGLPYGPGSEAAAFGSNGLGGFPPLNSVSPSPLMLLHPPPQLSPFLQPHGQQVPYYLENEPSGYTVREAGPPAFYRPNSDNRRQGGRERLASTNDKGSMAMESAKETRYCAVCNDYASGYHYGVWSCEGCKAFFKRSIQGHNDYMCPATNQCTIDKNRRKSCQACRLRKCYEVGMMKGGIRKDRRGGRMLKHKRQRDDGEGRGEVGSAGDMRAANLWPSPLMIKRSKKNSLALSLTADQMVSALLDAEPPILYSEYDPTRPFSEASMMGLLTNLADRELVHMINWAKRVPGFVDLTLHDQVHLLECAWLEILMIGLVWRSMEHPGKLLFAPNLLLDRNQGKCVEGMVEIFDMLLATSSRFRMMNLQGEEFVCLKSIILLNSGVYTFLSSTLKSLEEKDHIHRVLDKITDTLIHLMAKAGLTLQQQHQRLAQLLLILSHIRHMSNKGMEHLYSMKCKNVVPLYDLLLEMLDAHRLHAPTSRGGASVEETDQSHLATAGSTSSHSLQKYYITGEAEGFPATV
Kind of test: Mammalian two-hybrid conformational profiling of ESR1 with peptide probes in SKBR3 cells. Also on record: expressed in transfected cells; host or cells: SKBR3. Here is the method:
Triplicate wells of SKBR3 cells were transfected (Lipofectin per manufacturer's instructions) with plasmids expressing ERα fused to VP16 together with Gal4DBD alone (control) or fused to ER interacting peptides noted on the horizontal axis. Cells were then treated with RAD1901 (1 nM-1 μM) or the indicated ER ligands (100 nM). Interaction of ERα with the Gal4DBD peptide constructs was detected through activation of a Gal4 responsive luciferase reporter construct and was normalized to detected β-galactosidase activity generated by a co-transfected constitutive expression vector. Ligand classes recognized by each probe are indicated below the graph.
Mammalian 2-hybrid analysis of VP16-ESR1 with conformation-selective peptide probes was performed essentially as previously described (Wardell et al., (2012) Mol Endocrinol 26 (7):1235-1248).
The expression of ESR1 target genes responsive to (FIG. 10A) agonists, (FIG. 10B) primarily SERMs, or (FIG. 10C) SERMs and agonists was analyzed as in FIG. 5. Relative changes of these and additional target genes designed to evaluate dose dependent response to RAD1901 are presented in FIG. 11. Significant target gene regulation (*p<0.05) as compared to the vehicle control was detected by 2 way ANOVA followed by Fisher's LSD (Graphpad Prism 6). […] Triplicate wells of SKBR3 cells were transfected with plasmids expressing ESR1 fused to VP16 together with Gal4DBD alone (control) or Gal4DBD fused to ESR1 interacting peptides noted on the horizontal axis. Cells were then treated with the indicated ESR1 ligands (10^−7 M unless otherwise indicated). Interaction of ESR1 with the Gal4DBD peptide constructs was detected through activation of a Gal4-responsive luciferase reporter construct and was normalized to detected β-galactosidase activity expressed in a constitutive manner using a second vector. Normalized response was expressed as fold increase over the detected level of interaction between Gal4DBD alone and ESR1-VP16 in the absence of ligand (Veh). For FIG. 10E, the effect of SERMs and SERDs (10^−6 M) on the proliferation of MCF7 cells in response to E2 (10^−9 M) or insulin (2×10^−9 M) was evaluated as in FIG. 5. Statistically similar treatments (2-way ANOVA followed by Bonferroni comparison) are indicated by letters. […] The expression of ESR1 target genes responsive to (A) agonists, (B) primarily SERMs, or (C) SERMs and agonists was analyzed using RT qPCR following RNA isolation. mRNA expression was normalized (ΔΔCT analysis) to the similarly detected 36B4 housekeeping. The profiles presented in dendogram format were analyzed with the Ward hierarchical clustering algorithm (JMP 11) using standardized data.

For `CCNCCc1ccc(CN(CC)c2cc(OC)ccc2[C@@H]2CCc3cc(O)ccc3C2)cc1` [RAD1901, (R)-6-{2-{ethyl[4-(2-ethylaminoethyl)benzyl]amino}-4-methoxyphenyl}-5,6,7,8-tetrahydronaphthalen-2-ol], the “E2-dependent induction of target gene transcription (TFF1 mRNA)” value in test [1] is given as “inhibited”. Also, the “E2-dependent stimulation of cell proliferation” value in the test with MCF7 cells is given as “inhibited”. For the same molecule, on ESR1, the “ESR1 conformation / peptide interaction profile” value is recorded as “induces a unique conformation of ERα; also recorded: completely distinct from any other known ligand”; the “interaction of αII peptide (hinge region surface)” value is recorded as “significant interaction”; the “interaction with peptides reporting ESR1 structures adopted upon binding tamoxifen (aβV) or ICI (βI2)” value is listed as “No interaction was observed”; the “interaction with peptides that report on agonist activity (ASC1 and PGC1)” value is listed as “decreased interaction”.
